Measured values as given in US11149031B2, “Substituted N-(3-fluoropropyl)-pyrrolidine compounds, processes for their preparation and therapeutic uses thereof” (SANOFI, priority 2016, dated 2021).

Experiments:
[1] = molecular target: His6-ERα298-554 WT (ERα ligand-binding domain) (Homo sapiens (Human), UniProt P03372); assay: Test A: biochemical antagonist activity, LanthaScreen TR-FRET ERα coactivator assay, WT; details: protocol with 3 nM estradiol; read-out: Antagonism WT IC50
Method in brief: (§1)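 His6-ERα LBD (aa 298–554), 0.5 nM, with Tb-anti-His6 antibody, 250 nM PGC1a peptide and 3 nM (or 10 nM) estradiol in pH 7.4 potassium phosphate/DTT buffer; incubated with compound overnight at room temperature. IC50 from 4-parameter logistic fit of TR-FRET 520:495 nm ratio.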

[2] = molecular target: His6-ERα298-554 D538G mutant (ERα ligand-binding domain) (Homo sapiens (Human), UniProt P03372, D538G); assay: Test A: biochemical antagonist activity, LanthaScreen TR-FRET ERα coactivator assay, D538G mutant; details: protocol with 3 nM estradiol; read-out: Antagonism D538G IC50
Sequence of His6-ERα298-554 D538G mutant (ERα ligand-binding domain) (P03372 298-554 D538G): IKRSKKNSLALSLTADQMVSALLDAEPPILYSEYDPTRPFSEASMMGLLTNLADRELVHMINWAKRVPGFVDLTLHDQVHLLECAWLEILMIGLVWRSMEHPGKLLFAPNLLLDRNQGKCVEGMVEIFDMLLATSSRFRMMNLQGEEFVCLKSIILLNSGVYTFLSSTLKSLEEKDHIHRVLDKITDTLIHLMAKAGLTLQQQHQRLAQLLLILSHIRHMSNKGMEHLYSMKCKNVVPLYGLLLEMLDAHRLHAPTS
Method in brief: as §1

[3] = molecular target: His6-ERα298-554 Y537S mutant (ERα ligand-binding domain) (Homo sapiens (Human), UniProt P03372, Y537S); assay: Test A: biochemical antagonist activity, LanthaScreen TR-FRET ERα coactivator assay, Y537S mutant; details: protocol with 3 nM estradiol; read-out: Antagonism Y537S IC50
Sequence of His6-ERα298-554 Y537S mutant (ERα ligand-binding domain) (P03372 298-554 Y537S): as the sequence (P03372 298-554 D538G) above, with Y240S, G241D counted along it
Method in brief: as §1

[4] = tested on: MCF7 cells (breast tumor cells) WT; assay: Test B: cell proliferation/viability assay (CellTiter-Glo) on MCF7 WT; format: cell-based; details: Homo sapiens, MCF7, 168 h, 7 days of compound exposure
Method in brief: (§2)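 Mutant lines are MCF7 transfected with ER mutants and selected for estradiol-independent growth. Cells in phenol red-free MEM with 5% charcoal-stripped FBS received 9-point 1:5 dilutions (3-0.000001 μM) for 7 days; CellTiter-Glo luminescence, % viability relative to untreated after background subtraction.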

[5] = tested on: MCF7 cells expressing mutant estrogen receptor Tyr 537 Ser; assay: Test B: cell proliferation/viability assay (CellTiter-Glo) on MCF7 Tyr 537 Ser mutant; format: cell-based; details: Homo sapiens, MCF7, 168 h, MCF7 cells expressing ER Tyr 537 Ser mutant, 7 days of compound exposure, read-out: proliferation MCF7 Y537S IC50
Method in brief: as §2

[6] = tested on: MCF7 cells expressing mutant estrogen receptor Asp 538 Gly; assay: Test B: cell proliferation/viability assay (CellTiter-Glo) on MCF7 Asp 538 Gly mutant; format: cell-based; details: Homo sapiens, MCF7, 168 h, MCF7 cells expressing ER Asp 538 Gly mutant, 7 days of compound exposure, read-out: proliferation MCF7 D538G IC50
Method in brief: as §2

ERα in MCF7 cells = ERα in MCF7 cells (Homo sapiens (Human), UniProt P03372); assay: Test C: estrogen receptor degradation activity, ERα in cell western assay in MCF7 cells; format: cell-based; details: for DC50: 4 hours post compound addition, ERα in cell western, read-out: Degradation IC50; for % Degradation at 3 μM: 4 hours, relative to fulvestrant
Sequence of ERα in MCF7 cells (P03372 whole entry): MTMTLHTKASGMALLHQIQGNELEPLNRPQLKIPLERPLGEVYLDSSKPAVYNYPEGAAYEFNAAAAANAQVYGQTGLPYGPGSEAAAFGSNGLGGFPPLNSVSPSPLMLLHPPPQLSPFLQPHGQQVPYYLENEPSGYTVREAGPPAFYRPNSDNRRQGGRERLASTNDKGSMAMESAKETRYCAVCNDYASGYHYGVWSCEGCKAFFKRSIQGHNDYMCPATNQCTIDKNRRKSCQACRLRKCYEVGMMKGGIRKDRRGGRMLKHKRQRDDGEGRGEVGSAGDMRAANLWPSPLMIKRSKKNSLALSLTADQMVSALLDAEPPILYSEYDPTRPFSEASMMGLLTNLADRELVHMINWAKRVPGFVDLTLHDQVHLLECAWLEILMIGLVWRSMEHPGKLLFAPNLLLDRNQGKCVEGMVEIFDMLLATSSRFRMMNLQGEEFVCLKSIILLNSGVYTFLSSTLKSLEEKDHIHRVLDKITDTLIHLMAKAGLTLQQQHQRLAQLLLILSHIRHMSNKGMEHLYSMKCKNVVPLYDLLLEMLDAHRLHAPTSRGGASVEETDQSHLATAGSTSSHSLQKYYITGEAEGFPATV
Method in brief: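 MCF7 cells in phenol-red-free medium with 5% charcoal-stripped FBS received compound (9-point 1:5, 3-0.000018 μM) for 4 h, then were fixed. ERα immunostained (Alexa 488) and normalised to DNA (Syto-64), read as integrated fluorescence on an Acumen scanner.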

Sequence of His6-ERα298-554 WT (ERα ligand-binding domain) (P03372 298-554): as the sequence (P03372 298-554 D538G) above, with G241D counted along it

Row | SMILES | IC50 [1] | IC50 [2] | IC50 [3] | IC50 [4] | IC50 [5] | IC50 [6] | DC50 (ERα in MCF7 cells) | % Degradation at 3 μM (ERα in MCF7 cells)
1 | Cc1ccc(C2=C(c3ccc(O[C@H]4CCN(CCCF)C4)cc3)c3ccc(O)cc3OCC2)c(F)c1 [Example 96, 4-(2-fluoro-4-methyl-phenyl)-5-[4-[(3S)-1-(3-fluoropropyl)pyrrolidin-3-yl]oxyphenyl]-2,3-dihydro-1-benzoxepin-8-ol] | 7 nM | 47 nM | 19 nM | 2 nM | 16 nM | 5 nM | 0.6 nM | 91%
2 | Oc1ccc2c(c1)OCCC(c1ccc(Cl)cc1F)=C2c1ccc(O[C@H]2CCN(CCCF)C2)cc1 [Example 98, 4-(4-chloro-2-fluoro-phenyl)-5-[4-[(3S)-1-(3-fluoropropyl)pyrrolidin-3-yl]oxyphenyl]-2,3-dihydro-1-benzoxepin-8-ol] | 14 nM | 106 nM | 40 nM | 0.5 nM | 5 nM | 2 nM | 0.5 nM | 93%
3 | Oc1ccc2c(c1)OCCC(c1ccc(Cl)cc1Cl)=C2c1ccc(O[C@H]2CCN(CCCF)C2)cc1 [Example 102, 4-(2,4-dichlorophenyl)-5-[4-[(3S)-1-(3-fluoropropyl)pyrrolidin-3-yl]oxyphenyl]-2,3-dihydro-1-benzoxepin-8-ol] | 12 nM | 106 nM | 51 nM | 0.5 nM | 5 nM | 0.8 nM | 2 nM | 87%
4 | Oc1ccc2c(c1)OCCC(c1ccc3cc[nH]c3c1)=C2c1ccc(O[C@H]2CCN(CCCF)C2)cc1 [Example 103, 5-[4-[(3S)-1-(3-fluoropropyl)pyrrolidin-3-yl]oxyphenyl]-4-(1H-indol-6-yl)-2,3-dihydro-1-benzoxepin-8-ol] | 38 nM | 252 nM | 101 nM | 0.3 nM | 4 nM | 1 nM | 3 nM | 89%
5 | Cc1c(Cl)cccc1C1=C(c2ccc(O[C@H]3CCN(CCCF)C3)cc2)c2ccc(O)c(F)c2OCC1 [Example 105, 4-(3-chloro-2-methyl-phenyl)-9-fluoro-5-[4-[(3S)-1-(3-fluoropropyl)pyrrolidin-3-yl]oxyphenyl]-2,3-dihydro-1-benzoxepin-8-ol] | 5 nM | 38 nM | 23 nM | 0.5 nM | 11 nM | 2 nM | 0.2 nM | 91%
6 | Cc1ccc(C2=C(c3ccc(O[C@H]4CCN(CCCF)C4)cc3)c3ccc(O)c(F)c3OCC2)c(F)c1 [Example 106, 9-fluoro-4-(2-fluoro-4-methyl-phenyl)-5-[4-[(3S)-1-(3-fluoropropyl)pyrrolidin-3-yl]oxyphenyl]-2,3-dihydro-1-benzoxepin-8-ol] | 5 nM | 31 nM | 16 nM | 0.7 nM | 12 nM | 3 nM | 0.5 nM | 90%
7 | Oc1ccc2c(c1F)OCCC(c1ccc3c(c1)CCN3)=C2c1ccc(O[C@H]2CCN(CCCF)C2)cc1 [Example 107, 9-fluoro-5-[4-[(3S)-1-(3-fluoropropyl)pyrrolidin-3-yl]oxyphenyl]-4-indolin-5-yl-2,3-dihydro-1-benzoxepin-8-ol] | 19 nM | 79 nM | 55 nM | 19 nM | 147 nM | 33 nM | 2 nM | 82%
8 | Oc1ccc2c(c1)OCCC(c1cccc3[nH]ccc13)=C2c1ccc(O[C@H]2CCN(CCCF)C2)cc1 [Example 110, 5-[4-[(3S)-1-(3-fluoropropyl)pyrrolidin-3-yl]oxyphenyl]-4-(1H-indol-4-yl)-2,3-dihydro-1-benzoxepin-8-ol] | 5 nM | 39 nM | 26 nM | 1 nM | 45 nM | 6 nM | 0.2 nM | 87%
9 | Oc1ccc2c(c1F)OCCC(c1ccc3[nH]ccc3c1)=C2c1ccc(O[C@H]2CCN(CCCF)C2)cc1 [Example 113, 9-fluoro-5-[4-[(3S)-1-(3-fluoropropyl)pyrrolidin-3-yl]oxyphenyl]-4-(1H-indol-5-yl)-2,3-dihydro-1-benzoxepin-8-ol] | 6 nM | 32 nM | 19 nM | 5 nM | 31 nM | 14 nM | 0.7 nM | 80%
10 | Oc1ccc2c(c1)OCCC(c1ccc3c(c1)NCC3)=C2c1ccc(O[C@H]2CCN(CCCF)C2)cc1 [Example 116, 5-[4-[(3S)-1-(3-fluoropropyl)pyrrolidin-3-yl]oxyphenyl]-4-indolin-6-yl-2,3-dihydro-1-benzoxepin-8-ol] | 31 nM | 120 nM | 86 nM | 6 nM | 150 nM | 17 nM | 2 nM | 88%
11 | CCOc1ccc(C2=C(c3ccc(O[C@H]4CCN(CCCF)C4)cc3)c3ccc(O)cc3OCC2)c(C)c1 [Example 119, 4-(4-ethoxy-2-methyl-phenyl)-5-[4-[(3S)-1-(3-fluoropropyl)pyrrolidin-3-yl]oxyphenyl]-2,3-dihydro-1-benzoxepin-8-ol] | 2 nM | 10 nM | 6 nM | 0.6 nM | 5 nM | 0.5 nM | 1 nM | 91%
12 | Oc1ccc2c(c1)OCCC(c1ccc3occc3c1)=C2c1ccc(O[C@H]2CCN(CCCF)C2)cc1 [Example 120, 4-(benzofuran-5-yl)-5-[4-[(3S)-1-(3-fluoropropyl)pyrrolidin-3-yl]oxyphenyl]-2,3-dihydro-1-benzoxepin-8-ol] | 2 nM | 7 nM | 4 nM | 1 nM | 10 nM | 2 nM | 0.7 nM | 91%
13 | COc1ccc(C2=C(c3ccc(O[C@H]4CCN(CCCF)C4)cc3)c3ccc(O)cc3OCC2)c(F)c1 [Example 121, 4-(2-fluoro-4-methoxy-phenyl)-5-[4-[(3S)-1-(3-fluoropropyl)pyrrolidin-3-yl]oxyphenyl]-2,3-dihydro-1-benzoxepin-8-ol] | 2 nM | 27 nM | 13 nM | 0.3 nM | 3 nM | 1 nM | 0.2 nM | 90%
14 | Oc1ccc2c(c1Cl)OCCC(c1cccc3[nH]ccc13)=C2c1ccc(O[C@H]2CCN(CCCF)C2)cc1 [Example 124, 9-chloro-5-[4-[(3S)-1-(3-fluoropropyl)pyrrolidin-3-yl]oxyphenyl]-4-(1H-indol-4-yl)-2,3-dihydro-1-benzoxepin-8-ol] | 22 nM | 849 nM | 1240 nM | 8 nM | 165 nM | 33 nM | 5 nM | 76%
15 | Cc1c(O)ccc2c1OCCC(c1ccc3cc[nH]c3c1)=C2c1ccc(O[C@H]2CCN(CCCF)C2)cc1 [Example 129, 5-[4-[(3S)-1-(3-fluoropropyl)pyrrolidin-3-yl]oxyphenyl]-4-(1H-indol-6-yl)-9-methyl-2,3-dihydro-1-benzoxepin-8-ol] | 502 nM | > 4000 nM | 2680 nM | 245 nM | > 999 nM | 456 nM | 44 nM | 75%
16 | Cc1ccc(C2=C(c3ccc(O[C@H]4CCN(CCCF)C4)cc3)c3cc(F)c(O)cc3OCC2)c(F)c1 [Example 138, 7-fluoro-4-(2-fluoro-4-methyl-phenyl)-5-[4-[(3S)-1-(3-fluoropropyl)pyrrolidin-3-yl]oxyphenyl]-2,3-dihydro-1-benzoxepin-8-ol] | 18 nM | 360 nM | 253 nM | 2 nM | 51 nM | 7 nM | 0.5 nM | 89%
17 | CC(C)Oc1ccc(C2=C(c3ccc(O[C@H]4CCN(CCCF)C4)cc3)c3ccc(O)cc3OCC2)cc1F [Example 141, 4-(3-fluoro-4-isopropoxy-phenyl)-5-[4-[(3S)-1-(3-fluoropropyl)pyrrolidin-3-yl]oxyphenyl]-2,3-dihydro-1-benzoxepin-8-ol] | 23 nM | 1500 nM | 1120 nM | 1 nM | 22 nM | 4 nM | 2 nM | 87%
